Experiment [1] addresses T1, MpGSMT (Methanohalophilus portucalensis, UniProt F6KV61).
T1 construct: gene gsmt
T1 sequence (F6KV61 1-263): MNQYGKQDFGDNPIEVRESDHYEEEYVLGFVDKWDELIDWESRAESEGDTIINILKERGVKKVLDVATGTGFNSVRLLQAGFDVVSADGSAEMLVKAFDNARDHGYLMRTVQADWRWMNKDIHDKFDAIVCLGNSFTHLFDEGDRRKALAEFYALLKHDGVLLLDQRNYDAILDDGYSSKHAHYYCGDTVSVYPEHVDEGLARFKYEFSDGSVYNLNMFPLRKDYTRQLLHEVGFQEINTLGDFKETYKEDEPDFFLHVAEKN
The experiment is described as follows: X-ray crystal structure, co-crystal and soaking. It counts as binding. Particulars: active site; with SAH (5HIL) or SAM (5GWX); inactive conformation. From the text: X-ray crystal structure, co-crystal and soaking on […] | crystal structure of […] in complex with the sarcosine substrate and the SAH cofactor

For experiment [2], the target named is T1, MpGSMT. The experiment can be described thus: X-ray crystal structure, soaking. Type of experiment: binding.
Experiment [3] concerns the target T2, MpGSMT (Methanohalophilus portucalensis, UniProt F6KV61, N100Q).
T2 construct: gene gsmt
The experiment is described as follows: methyltransferase activity with betaine. The conditions noted are these: feedback inhibitor, allosteric; mutant has low activity. Type of experiment: biochemical.

Experiment [4] deals with T3, MpGSMT (Methanohalophilus portucalensis, UniProt F6KV61, H104K).
T3 construct: gene gsmt
T3 sequence (F6KV61 entry or part of it H104K): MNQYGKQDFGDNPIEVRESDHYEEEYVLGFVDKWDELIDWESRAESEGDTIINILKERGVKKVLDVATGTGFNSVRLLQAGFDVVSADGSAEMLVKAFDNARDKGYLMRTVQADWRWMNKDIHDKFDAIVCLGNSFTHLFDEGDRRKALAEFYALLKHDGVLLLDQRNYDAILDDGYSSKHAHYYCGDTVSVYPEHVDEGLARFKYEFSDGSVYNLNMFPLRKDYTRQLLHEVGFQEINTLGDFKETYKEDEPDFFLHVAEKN
The experiment is described as follows: methyltransferase activity with betaine. Type of experiment: biochemical. The conditions noted are these: feedback inhibitor, allosteric.

Experiment [5] has as its target T1, MpGSMT. The experiment is described as follows: X-ray crystal structure, co-crystal. Type of experiment: binding. The conditions noted are these: cofactor site; with sarcosine; 0.1 mM SAH.

Here are results for four molecules from article PMC5146677, “Structural Analysis of Glycine Sarcosine N-methyltransferase from Methanohalophilus portucalensis Reveals Mechanistic Insights into the Regulation of Methyltransferase Activity” (Scientific Reports, 2016).

T2 sequence (F6KV61 entry or part of it N100Q): as the sequence (F6KV61 entry or part of it H104K) above, with N100Q, K104H counted along it

Consider `CNCC(=O)O` [sarcosine], for which the “X-ray crystal structure, co-crystal and soaking” value on MpGSMT [1] was “crystal structure of MpGSMT in complex with the sarcosine substrate and the SAH cofactor”.
In the case of `C[S+](CC[C@H](N)C(=O)O)C[C@H]1O[C@@H](n2cnc3c(N)ncnc32)[C@H](O)[C@@H]1O` (stereo partly drawn) [SAM], the “X-ray crystal structure, soaking” value at MpGSMT [2] (cofactor site, binary (5HIK) or with sarcosine (5GWX), 2 mM SAM) is “clear electron density maps corresponding to sarcosine and SAM in the active site”.
`C[N+](C)(C)CC(=O)[O-]` [betaine]: the “X-ray crystal structure, soaking” value on MpGSMT [2] (allosteric feedback inhibitor site near Trp40, 1.7 M betaine soak) is “the observed MpGSMT structure indeed harbors a pocket for interacting directly with betaine”. The betaine sensitivity result is on record as “MpGSMT^N100Q displayed a decreased response to betaine” at MpGSMT [3] and “MpGSMT^H104K exhibited increased sensitivity to betaine” on MpGSMT [4].
For the molecule `Nc1ncnc2c1ncn2[C@@H]1O[C@H](CSCC[C@H](N)C(=O)O)[C@@H](O)[C@H]1O` [SAH], the “X-ray crystal structure, co-crystal” value at MpGSMT [5] is “Clear electron density is visible for bound sarcosine and SAH”.
